What was measured:
[1] = target: T1, adenosine A2A receptor (Homo sapiens (Human), UniProt P29274); assay: Radioligand binding competition assay, adenosine A2A receptor; details: for A2A radioligand binding competition assay % residual binding @ 3000 nM: 3000 nM compound; for inhibition at 0.3 µM: read-out: A2a binding % inh @ 300 nM
Description: Binding of selected compounds to the adenosine A1, A2A, A2B, and A3 receptors was tested using a binding competition assay.
The general protocol for the radioligand binding competition assay was as follows. Competition binding was performed in duplicate in the wells of a 96 well plate (Master Block, Greiner, 786201) containing binding buffer (optimized for each receptor), membrane extracts (amount of protein/well optimized for each receptor), radiotracer (final concentration optimized for each receptor), and test compound. Nonspecific binding was determined by co-incubation with 200-fold excess of cold competitor. The samples were incubated in a final volume of 0.1 mL at 25° C. for 60 minutes and then filtered over filter plates. Filters were washed six times with 0.5 mL of ice-cold washing buffer (optimized for each receptor) and 50 μL of Microscint 20 (Packard) were added on each filter. The filter plates were sealed, incubated 15 min on an orbital shaker and scintillation counted with a TopCount for 30 sec/filter.
For the adenosine A2A receptor radioligand binding assay, the following modifications were made to the general protocol. GF/C filters (Perkin Elmer, 6005174), presoaked in 0.01% Brij for 2 h at room temperature were used. Filters were washed six times with 0.5 mL of ice-cold washing buffer (50 mM Tris pH 7.4) and 50 μL of Microscint 20 (Packard) was added in each well. The plates were then incubated for 15 min on an orbital shaker and then counted with a TopCount™ for 1 min/well.
Another radioligand binding assay was used to evaluate the binding affinity for the adenosine A2A receptor assay was performed in duplicate in the wells of a 384 plate. Assay buffer contained DPBS 500 mM, MgCl2 0.1 mM, and 1% DMSO. Membrane-bead suspension was prepared by mixing 25.98 μL of human adenosine A2A membrane preparation (Perkin Elmer, RBHA2AM400UA) at 33.4 pg/mL, 28 μL of ADA at 20 pg/mL, and 932 μL of SPA beads at 3.33 mg/mL) and incubated the mixture for 20 min at room temperature. Mixed 20 μL of radiotracer (^3H-SCH 58261) at 15 nM to each well containing test articles at various concentrations and centrifuge the plate at 1000 rpm for 1 minute. Added 30 μL of the membrane-bead suspension to each well. Sealed the plates and incubated for 1 hr at room temperature with vigorous mixing on a plate mixer. Plates were read on Microbeta^2 (Perkin Elmer, 2450-0010).
CHO-K1-A3 cell membranes, 1.5 μg/well; a binding buffer comprising HEPES 25 mM pH 7.4, MgCl2 5 mM, CaCl2 1 mM, 0.5% BSA; a wash buffer comprising HEPES 25 mM pH 7.4, MgCl2 5 mM, CaCl2 1 mM; a Unifilter GF/C—treated for 2 h with 0.5% BS; and 0.4 nM of ^125I-AB-MECA as the tracer. The results of the binding assay are shown in Table B1-1 and are shown as percent residual binding at a given concentration. Percent of residual binding means binding of a compound in the presence of competitor normalized to the amount of binding in the absence of competitor. […] For example, compound 1 strongly bound to A2A (30% residual binding at a concentration of 100 nM), A1 (−3% residual binding at 300 nM) and A2B, (−9% residual binding at 300 nM) but weakly bound to A3 (96% residual binding at 300 nM).

[2] = target: T1, adenosine A2A receptor; assay: cAMP assay in HEK-293 cells expressing human recombinant adenosine A2A receptor; type: cell-based; details: for inhibition at 0.1 µM: HEK293, 100 nM compound, read-out: A2a cAMP % inh @ 100 nM
Description: The functional activity of compounds was tested using one of the two assays to detect the present of cAMP. Activation of G-protein coupled receptors (such as A2A) results in activation of adenylcyclase which converts ATP into cAMP which is used as a downstream signaling molecule. Therefore, molecules which act as GPCR (or specifically A2A receptor) antagonists cause a decrease in intracellular cAMP concentration.
Both assays used HEK-293 cells expressing human recombinant adenosine A2A receptor were grown prior to the test in media without antibiotic. Assay 1: The cells were detached by gentle flushing with PBS-EDTA (5 mM EDTA), recovered by centrifugation and suspended in assay buffer (KRH: 5 mM KCl, 1.25 mM MgSO4, 124 mM NaCl, 25 mM HEPES, 13.3 mM Glucose, 1.25 mM KH2PO4, 1.45 mM CaCl2, 0.5 g/L BSA, supplemented with Rolipram).
12 μL of cells were mixed with 6 μL of the test compound at increasing concentrations and then incubated for 10 min. Thereafter 6 μL of the reference agonist was added at a final concentration corresponding to the historical EC80. The plates were then incubated for 30 min at room temperature. After addition of the lysis buffer and 1 hour incubation, cAMP concentrations were estimated, according to the manufacturer specification, with the HTRF® kit.
Assay 2: 100 nL of test articles at 100× of final concentration were transferred to assay plate by Echo. Cells were washed twice with 5 mL of PBS […]. After aspirating the PBS and adding 1.5 mL versine, cells were incubated at 37° C. for 2-5 min. After centrifugation, 4 mL of medium was added and adjusted cell density to 5,000 cells/well with stimulation buffer. 10 μL of cells were aliquoted to the assay plate, centrifuged at 1000 rpm for 1 minute, and incubated for 60 minutes at room temperature. 5 μL 4× Eu-cAMP tracer solution and 5 μL 4× Ulight™-anti-cAMP solution were added to assay plate, followed by centrifugation and 60-minute incubation at room temperature. Plates were read on EnVision.

T1 sequence (P29274 whole entry): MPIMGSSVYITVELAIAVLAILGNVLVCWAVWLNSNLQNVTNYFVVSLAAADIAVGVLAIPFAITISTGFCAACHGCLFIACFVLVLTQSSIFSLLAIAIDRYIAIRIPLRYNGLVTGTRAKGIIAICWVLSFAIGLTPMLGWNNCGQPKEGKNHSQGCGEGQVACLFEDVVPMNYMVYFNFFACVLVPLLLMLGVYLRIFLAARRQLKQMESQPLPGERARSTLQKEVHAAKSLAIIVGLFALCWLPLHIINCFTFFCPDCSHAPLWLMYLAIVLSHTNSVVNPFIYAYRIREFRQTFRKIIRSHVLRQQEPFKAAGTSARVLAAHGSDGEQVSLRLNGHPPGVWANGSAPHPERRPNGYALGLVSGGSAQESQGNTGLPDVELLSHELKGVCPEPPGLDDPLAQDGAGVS

Structure (SMILES): Cc1cc(-c2cc3c(=O)cc[nH]c3nc2-c2ccccc2)cc(C)n1 [1.3, 6-(2,6-dimethylpyridin-4-yl)-7-phenyl-1,8-naphthyridin-4(1H)-one]
- A2A radioligand binding competition assay % residual binding @ 3000 nM [1]: 50/ND/ND/ND %
- inhibition at 0.1 µM [2]: 50%

Structure (SMILES): O=c1ccc2cc(-c3ccc4ncccc4c3)c(-c3ccccc3)nc2[nH]1 [1.4, 7-phenyl-6-(quinolin-6-yl)-1,8-naphthyridin-2(1H)-one]
- A2A radioligand binding competition assay % residual binding @ 100 nM ([1]; 100 nM compound): 71%
- A2A radioligand binding competition assay % residual binding @ 300 nM ([1]; 300 nM compound): 79%
- A2A radioligand binding competition assay % residual binding @ 1000 nM ([1]; 1000 nM compound): 17%
- A2A radioligand binding competition assay % residual binding @ 3000 nM [1]: 19%
- inhibition at 0.1 µM [2]: 82%

Structure (SMILES): O=c1ccc2cc(-c3ccc4[nH]cnc4c3)c(-c3ccccc3)nc2[nH]1 [Compound No. 1.6, 6-(1H-benzo[d]imidazol-5-yl)-7-phenyl-1,8-naphthyridin-2(1H)-one]
- A2A radioligand binding competition assay % residual binding @ 3000 nM [1]: 57/ND/ND/ND %
- inhibition at 0.1 µM [2]: 43%

Structure (SMILES): Cn1ccc(=O)c2cc(-c3ccc4ncccc4c3)c(-c3ccccc3)nc21 [Compound No. 1.8, 1-methyl-7-phenyl-6-(quinolin-6-yl)-1,8-naphthyridin-4(1H)-one]
- A2A radioligand binding competition assay % residual binding @ 3000 nM [1]: 106/ND/ND/ND %
- inhibition at 0.1 µM [2]: 0%

Structure (SMILES): O=c1cc[nH]c2nc(-c3ccccc3)c(-c3ccc4cnccc4c3)cc12 [Compound No. 1.9, 6-(isoquinolin-6-yl)-7-phenyl-1,8-naphthyridin-4(1H)-one]
- A2A radioligand binding competition assay % residual binding @ 3000 nM [1]: 70/ND/ND/ND %
- inhibition at 0.1 µM [2]: 30%

Structure (SMILES): O=c1ccc2cc(-c3ccc4nccnc4c3)c(-c3ccccc3)nc2[nH]1 [Compound No. 1.10, 7-phenyl-6-(quinoxalin-6-yl)-1,8-naphthyridin-2(1H)-one]
- A2A radioligand binding competition assay % residual binding @ 3000 nM [1]: 60/ND/ND/ND %
- inhibition at 0.1 µM [2]: 40%

Structure (SMILES): O=c1cc[nH]c2nc(-c3ccccc3)c(-c3cnc4ncccc4c3)cc12 [Compound No. 1.11, 2-phenyl-[3,3′-bi(1,8-naphthyridin)]-5(8H)-one]
- A2A radioligand binding competition assay % residual binding @ 3000 nM [1]: 51/ND/ND/ND %
- inhibition at 0.1 µM [2]: 49%

Structure (SMILES): O=c1ccc2cc(-c3cc(Cl)c4ncccc4c3)c(-c3ccccc3)nc2[nH]1 [Compound No. 1.12, 6-(8-chloroquinolin-6-yl)-7-phenyl-1,8-naphthyridin-2 (1H)-one]
- A2A radioligand binding competition assay % residual binding @ 3000 nM [1]: 14/ND/ND/ND %
- inhibition at 0.1 µM [2]: 100%

Structure (SMILES): O=c1cc[nH]c2nc(-c3ccccc3)c(-c3cc(Cl)c4ncccc4c3)cc12 [Compound No. 1.13, 6-(8-chloroquinolin-6-yl)-7-phenyl-1,8-naphthyridin-4(1H)-one]
- A2A radioligand binding competition assay % residual binding @ 3000 nM [1]: 29/ND/ND/ND %
- IC50 ([2]; first cAMP table): 47.7 nM

Structure (SMILES): O=c1cc[nH]c2nc(-c3ccccc3)c(-c3ccc4nccnc4c3)cc12 [Compound No. 1.15, 7-phenyl-6-(quinoxalin-6-yl)-1,8-naphthyridin-4(1H)-one]
- A2A radioligand binding competition assay % residual binding @ 3000 nM [1]: 45/ND/ND/ND %
- inhibition at 0.1 µM [2]: 54%

Structure (SMILES): O=c1cc[nH]c2nc(-c3ccccc3)c(-c3ccc4ccccc4c3)cc12 [Compound No. 1.16, 6-(naphthalen-2-yl)-7-phenyl-1,8-naphthyridin-4(1H)-one]
- A2A radioligand binding competition assay % residual binding @ 3000 nM [1]: 76/ND/ND/ND %
- inhibition at 0.1 µM [2]: 23%

Structure (SMILES): O=c1cc[nH]c2nc(-c3ccccc3)c(-c3cc(Cl)c4[nH]cnc4c3)cc12 [Compound No. 1.17, 6-(7-chloro-1H-benzo[d]imidazol-5-yl)-7-phenyl-1,8-naphthyridin-4(1H)-one]
- A2A radioligand binding competition assay % residual binding @ 3000 nM [1]: 14/ND/ND/ND %
- inhibition at 0.1 µM [2]: 85%

Structure (SMILES): O=c1cc[nH]c2nc(-c3ccncc3)c(-c3ccc4ncccc4c3)cc12 [Compound No. 1.18, 7-(pyridin-4-yl)-6-(quinolin-6-yl)-1,8-naphthyridin-4(1H)-one]
- A2A radioligand binding competition assay % residual binding @ 3000 nM [1]: 38/ND/ND/ND %
- inhibition at 0.1 µM [2]: 61%

Structure (SMILES): O=c1ccc2cc(-c3cc(Cl)c4[nH]cnc4c3)c(-c3ccccc3)nc2[nH]1 [Compound No. 1.19, 6-(7-chloro-1H-benzo[d]imidazol-5-yl)-7-phenyl-1,8-naphthyridin-2(1H)-one]
- A2A radioligand binding competition assay % residual binding @ 3000 nM [1]: 25/ND/ND/ND %
- inhibition at 0.1 µM [2]: 74%

Structure (SMILES): O=c1cc[nH]c2nc(-c3ccccc3)c(-c3ccc4ocnc4c3)cc12 [Compound No. 1.21, 6-(benzo[d]oxazol-5-yl)-7-phenyl-1,8-naphthyridin-4(1H)-one]
- A2A radioligand binding competition assay % residual binding @ 3000 nM [1]: 54/ND/ND/ND %
- inhibition at 0.1 µM [2]: 45%

Structure (SMILES): COc1cc(-c2cc3c(=O)cc[nH]c3nc2-c2ccccc2)cc2cccnc12 [Compound No. 1.26, 6-(8-methoxyquinolin-6-yl)-7-phenyl-1,8-naphthyridin-4(1H)-one]
- inhibition at 0.1 µM [2]: 64%

Structure (SMILES): O=c1cc[nH]c2nc(-c3ccco3)c(-c3ccc4[nH]cnc4c3)cc12 [Compound No. 1.27, 6-(1H-benzo[d]imidazol-5-yl)-7-(furan-2-yl)-1,8-naphthyridin-4(1H)-one]
- inhibition at 0.1 µM [2]: 88%

Structure (SMILES): O=c1cc[nH]c2nc(-c3cccnc3)c(-c3ccc4ncccc4c3)cc12 [Compound No. 1.28, 7-(pyridin-3-yl)-6-(quinolin-6-yl)-1,8-naphthyridin-4(1H)-one]
- inhibition at 0.1 µM [2]: 46%

Structure (SMILES): Cc1ccc(-c2nc3[nH]c(=O)ccc3cc2-c2ccc3ncccc3c2)o1 [Compound No. 1.29, 7-(5-methylfuran-2-yl)-6-(quinolin-6-yl)-1,8-naphthyridin-2(1H)-one]
- inhibition at 0.1 µM [2]: 77%

Structure (SMILES): O=c1cc[nH]c2nc(-c3ccccc3)c(-c3cccc(Cl)c3)cc12 [Compound No. 1.30, 6-(3-chlorophenyl)-7-phenyl-1,8-naphthyridin-4(1H)-one]
- inhibition at 0.3 µM ([1]; 300 nM compound): 0%

Structure (SMILES): O=c1ccc2cc(-c3cccc(Cl)c3)c(-c3ccccc3)nc2[nH]1 [Compound No. 1.31, 6-(3-chlorophenyl)-7-phenyl-1,8-naphthyridin-2(1H)-one]
- inhibition at 0.3 µM ([1]; 300 nM compound): 0%

Structure (SMILES): O=c1ccc2cc(-c3ccc4[nH]c(=O)[nH]c4c3)c(-c3ccccc3)nc2[nH]1 [Compound No. 1.32, 6-(2-oxo-2,3-dihydro-1H-benzo[d]imidazol-5-yl)-7-phenyl-1,8-naphthyridin-2(1H)-one]
- inhibition at 0.3 µM ([1]; 300 nM compound): 0%

Structure (SMILES): Cc1ccn(-c2nc3[nH]ccc(=O)c3cc2-c2ccc3ncccc3c2)n1 [Compound No. 1.92, 7-(3-methyl-1H-pyrazol-1-yl)-6-(quinolin-6-yl)-1,8-naphthyridin-4(1H)-one]
- IC50 ([2]; second cAMP table): 357 nM
